In brackets after ≈: the same amount, converted by molar mass.
Assays:
Bacillus subtilis = experiment: Antimicrobial spectrum, agar diffusion technique; format: cell-based
Text: (§1) M.I.C. Values in mcg/ml utilizing the
(§2) Test Organism agar diffusion technique

Bacillus sp. E = experiment: Antimicrobial spectrum, agar diffusion technique; format: cell-based
Text: as §1, §2

Bacillus megaterium = experiment: Antimicrobial spectrum, agar diffusion technique; format: cell-based; settings: Priestia megaterium
Text: as §1, §2

Bacillus sp. TA = experiment: Antimicrobial spectrum, agar diffusion technique; format: cell-based
Text: as §1, §2

Sarcina lutea = experiment: Antimicrobial spectrum, agar diffusion technique; format: cell-based; settings: Micrococcus luteus
Text: as §1, §2

Staphylococcus aureus = experiment: Antimicrobial spectrum, agar diffusion technique; format: cell-based
Text: as §1, §2

Actinomyces cellulosae = experiment: Antimicrobial spectrum, agar diffusion technique; format: cell-based; settings: Streptomyces cellulosae
Text: as §1, §2

Paecilomyces varioti = experiment: Antimicrobial spectrum, agar diffusion technique; format: cell-based
Text: as §1, §2

Candida albicans = experiment: Antimicrobial spectrum, agar diffusion technique; format: cell-based
Text: as §1, §2

Mycobacterium phlei = experiment: Antimicrobial spectrum, agar diffusion technique; format: cell-based; settings: Mycolicibacterium phlei
Text: as §1, §2

[1] = Oral (per os) toxicity (LD50); settings: in vivo
DOCA-Na. rat = experiment: Subacute antihypertensive activity in the DOCA-Na rat versus bromolasalocid (AHR, onset, duration); format: in vivo
Method: (§3) A test was conducted for antihypertensive activity in the DOCA Na rat. DOCA rats weighing 170 to 210 grams are used in the test. DOCA Na Hypertension is induced by unilateral nephrectomy followed by subcutaneous implantation of a 25 mg. desoxycorticosterone (DOCA) pellet. Animals are placed in individual cages receiving 0.9% sodium chloride solution to drink and rat chow diet ad libitum. Two weeks are allowed to elapse from the time of surgery for development of hypertension, i.e., systolic blood pressure of at least 150 mmHg.
(§4) Systolic blood pressure and heart rate are measured indirectly from the tail pressure pulse of unanesthetized rats, using a pneumatic pulse transducer. Control readings are taken prior to drug and post drug readings are taken at 1, 3, 6 and 24 hours.
The experimental results are represented as absolute values. Drug-related alterations in systolic blood pressure are expressed as percentage change by comparing control absolute values with post drug absolute values. […] However, the reduction in blood pressure must show mathematical significance ([…]).
Using bromolasalocid as a standard for comparison, a number of the novel episalinomycin of the present invention was tested for antihypertensive activity. The tests were conducted utilizing single oral dosages in the DOCA-Na. rat over a five-day period with dosing discontinued thereafter. Blood pressure monitoring was carried out for the five-day period and daily after cessation of dosing until blood pressure returned to predrug levels. […] The antihypertensive activity expressed as AHR (Subacute antihypertensive ratio) was calculated using bromolasalocid as the standard reference (Table III).

DOCA Na rat = experiment: Antihypertensive activity in the DOCA Na rat, five-day oral dosing, systolic blood pressure; format: in vivo
Method: as §3, §4
The experimental results are represented as absolute values. Drug-related alterations in systolic blood pressure are expressed as percentage change by comparing control absolute values with post drug absolute values. Compounds are considered active when about a 15% or greater reduction in blood pressure is obtained. However, the reduction in blood pressure must show mathematical significance ([…]).
A derivative of the polyether ionophore, lasalocid, i.e., the bromo derivative of lasalocid, was tested in the above screen. The compound was orally administered for a five-day period by intubation and thereafter dosing was discontinued but blood pressure monitoring was continued. The following table illustrates the results obtained utilizing bromolasalocid as the test drug.

[2] = daily oral dose 1/100 of LD50 up to 10 mg/kg/day, five days

CCC(C(=O)O)C1CCC(C)C(C(C)C(O)C(C)C(=O)C(CC)C2OC3(C=CCC4(CCC(C)(C5CCC(O)(CC)C(C)O5)O4)O3)C(C)CC2C)O1 (stereo not drawn) [Deoxy-(0-8)-epi-17-salinomycin, 6-[5-[2'-(5"-Ethyltetrahydro-5"-hydroxy-6"-methyl-(2"H)-pyran-2"-yl]-2' ,12' ,14'-trimethyl-1',10' ,15'-trioxadispiro[4.3.5.1]pentadec-7'-en-11'-yl]-5-ethyl-1,3-dimethyl-2-hydroxy-4-oxopentyl]-alpha-ethyl-tetrahydro-5-methyl-(2H)-pyran-2-acetic acid]
MIC (Bacillus subtilis): 6.25 µg/mL (≈ 8.5 µM)
MIC (Bacillus sp. E): 6.25 µg/mL (≈ 8.5 µM)
MIC (Bacillus megaterium): 6.25 µg/mL (≈ 8.5 µM)
MIC (Bacillus sp. TA): 6.25 µg/mL (≈ 8.5 µM)
MIC (Sarcina lutea): 25 µg/mL (≈ 34 µM)
MIC (Staphylococcus aureus): 25 µg/mL (≈ 34 µM)
MIC (Actinomyces cellulosae): 250 µg/mL (≈ 340 µM)
MIC (Paecilomyces varioti): 15.7 µg/mL (≈ 21.4 µM)
MIC (Candida albicans): 2000 µg/mL (≈ 2720 µM)
MIC (Mycobacterium phlei): 500 µg/mL (≈ 680 µM)
LD50 [1]: > 1000 mg/kg
antihypertensive activity (in words) (DOCA-Na. rat; DOCA-Na rat, oral, five-day period): exhibited antihypertensive activity
Duration of Effect (DOCA-Na. rat; [2]): 4 days
Onset to Max. Response (DOCA-Na. rat; [2]): 3 days

CC[C@@H](C(=O)[C@@H](C)[C@@H](O)[C@H](C)CCc1c(Br)cc(C)c(O)c1C(=O)O)[C@H]1O[C@](CC)([C@H]2CC[C@](O)(CC)[C@H](C)O2)C[C@@H]1C [Bromolasalocid]
Average Systolic Blood Pressure Per Group (DOCA Na rat; 5 mg/kg per day oral for 5 days, Day 1 pm, pre-drug control (Day 1 am) 209): 193 mmHg
Average Systolic Blood Pressure Per Group (DOCA Na rat; 5 mg/kg per day oral for 5 days, Day 2 am, pre-drug control 209): 206 mmHg
Average Systolic Blood Pressure Per Group (DOCA Na rat; 5 mg/kg per day oral for 5 days, Day 2 pm, pre-drug control 209): 194 mmHg
Average Systolic Blood Pressure Per Group (DOCA Na rat; 5 mg/kg per day oral for 5 days, Day 3 am, pre-drug control 209): 204 mmHg
Average Systolic Blood Pressure Per Group (DOCA Na rat; 5 mg/kg per day oral for 5 days, Day 3 pm, pre-drug control 209): 191 mmHg
Average Systolic Blood Pressure Per Group (DOCA Na rat; 5 mg/kg per day oral for 5 days, Day 4 am, pre-drug control 209): 206 mmHg
Average Systolic Blood Pressure Per Group (DOCA Na rat; 5 mg/kg per day oral for 5 days, Day 4 pm, pre-drug control 209): 201 mmHg
Average Systolic Blood Pressure Per Group (DOCA Na rat; 5 mg/kg per day oral for 5 days, Day 5 am, pre-drug control 209): 197 mmHg
Average Systolic Blood Pressure Per Group (DOCA Na rat; 5 mg/kg per day oral for 5 days, Day 5 pm, pre-drug control 209): 196 mmHg
Average Systolic Blood Pressure Per Group (DOCA Na rat; 10 mg/kg per day oral for 5 days, Day 1 pm, p < .05, pre-drug control (Day 1 am) 217): 192 mmHg
Average Systolic Blood Pressure Per Group (DOCA Na rat; 10 mg/kg per day oral for 5 days, Day 2 am, p < .05, pre-drug control 217): 181 mmHg
Average Systolic Blood Pressure Per Group (DOCA Na rat; 10 mg/kg per day oral for 5 days, Day 2 pm, p < .05, pre-drug control 217): 166 mmHg
Average Systolic Blood Pressure Per Group (DOCA Na rat; 10 mg/kg per day oral for 5 days, Day 3 am, p < .05, pre-drug control 217): 171 mmHg
Average Systolic Blood Pressure Per Group (DOCA Na rat; 10 mg/kg per day oral for 5 days, Day 3 pm, p < .05, pre-drug control 217): 163 mmHg
Average Systolic Blood Pressure Per Group (DOCA Na rat; 10 mg/kg per day oral for 5 days, Day 4 am, p < .05, pre-drug control 217): 173 mmHg
Average Systolic Blood Pressure Per Group (DOCA Na rat; 10 mg/kg per day oral for 5 days, Day 4 pm, p < .05, pre-drug control 217): 157 mmHg
Average Systolic Blood Pressure Per Group (DOCA Na rat; 10 mg/kg per day oral for 5 days, Day 5 am, p < .05, pre-drug control 217): 176 mmHg
Average Systolic Blood Pressure Per Group (DOCA Na rat; 10 mg/kg per day oral for 5 days, Day 5 pm, p < .05, pre-drug control 217): 166 mmHg
Period blood pressure remained below control after drug dosing (DOCA Na rat; after dosing for the first five consecutive days): 10 days

— patent US4137241A, “Deoxy-(0-8)-epi-17-salinomycin (1)” (priority 1977, dated 1979)
